Tests used:
[1] = The drug is tested on Z-009 corresponding to pig gut metagenome with ENA study accession number: PRJEB37062 and ENA sample accession number: ERS12561809 for biotransformation under anaerobic condition. The drug concentrations were measured over 9 timepoints collected between 0 and 24 hours of incubation by liquid-chromatography-coupled mass spectrometry (LC–MS); conditions: 2 µM
[2] = human gut metagenome, 24 h, 2 µM
[3] = The drug is tested on Z-025 corresponding to rabbit gut metagenome with ENA study accession number: PRJEB37062 and ENA sample accession number: ERS12561824 for biotransformation under anaerobic condition. The drug concentrations were measured over 9 timepoints collected between 0 and 24 hours of incubation by liquid-chromatography-coupled mass spectrometry (LC–MS); conditions: 2 µM
[4] = The drug is tested on Z-024 corresponding to pig gut metagenome with ENA study accession number: PRJEB37062 and ENA sample accession number: ERS12561823 for biotransformation under anaerobic condition. The drug concentrations were measured over 9 timepoints collected between 0 and 24 hours of incubation by liquid-chromatography-coupled mass spectrometry (LC–MS); conditions: 2 µM
[5] = human gut metagenome, 24 h, 2 µM; remark: listed apart in the source
[6] = human gut metagenome, 24 h, 2 µM; remark: listed apart in the source
[7] = The drug is tested on WLS-077 corresponding to human gut metagenome with ENA study accession number: PRJEB37062 and ENA sample accession number: ERS12561750 for biotransformation under anaerobic condition. The drug concentrations were measured over 9 timepoints collected between 0 and 24 hours of incubation by liquid-chromatography-coupled mass spectrometry (LC–MS); conditions: 2 µM
[8] = human gut metagenome, 24 h, 2 µM; remark: listed apart in the source
[9] = The drug is tested on Z-007 corresponding to rat gut metagenome with ENA study accession number: PRJEB37062 and ENA sample accession number: ERS12561807 for biotransformation under anaerobic condition. The drug concentrations were measured over 9 timepoints collected between 0 and 24 hours of incubation by liquid-chromatography-coupled mass spectrometry (LC–MS); conditions: 2 µM
Note: call rule not given here.

| Structure (SMILES) | Bacterial Biotransformation [1] | Bacterial Biotransformation [2] | Bacterial Biotransformation [3] | Bacterial Biotransformation [4] | Bacterial Biotransformation [5] | Bacterial Biotransformation [6] | Bacterial Biotransformation [7] | Bacterial Biotransformation [8] | Bacterial Biotransformation [9] |
| --- | --- | --- | --- | --- | --- | --- | --- | --- | --- |
| CN1C(C(=O)Nc2ccccn2)=C(O)c2sccc2S1(=O)=O [TENOXICAM] | Compound NOT metabolized | Compound NOT metabolized | Compound metabolized | Compound metabolized | Compound NOT metabolized | Compound metabolized | Compound NOT metabolized | Compound NOT metabolized | Compound NOT metabolized |
| O=c1n(CCCN2CCN(c3cccc(Cl)c3)CC2)nc2ccccn12 [TRAZODONE] | Compound NOT metabolized | Compound metabolized | Compound NOT metabolized | Compound metabolized | Compound metabolized | Compound NOT metabolized | Compound NOT metabolized | Compound NOT metabolized | Compound NOT metabolized |
| OC(CCN1CCCCC1)(c1ccccc1)C1CCCCC1 (stereo unspecified) [TRIHEXYPHENIDYL] | Compound metabolized | Compound metabolized | Compound NOT metabolized | Compound metabolized | Compound metabolized | Compound NOT metabolized | Compound metabolized | Compound metabolized | Compound NOT metabolized |
| Cc1ccc(/C(=C\CN2CCCC2)c2ccccn2)cc1 [TRIPROLIDINE] | Compound NOT metabolized | Compound metabolized | Compound NOT metabolized | Compound NOT metabolized | Compound NOT metabolized | Compound NOT metabolized | Compound NOT metabolized | Compound NOT metabolized | Compound NOT metabolized |

Reference: ChEMBL document CHEMBL5724914, “Linking interpersonal differences in gut microbiota composition and drug biotransformation activity” (2024)
